What was measured:
SK-N-BE(2)c = test: Cell growth, CellTitor-Glo assay, 72 h; assay type: cell-based; conditions: Homo sapiens
Experimental: (§1) The human NB cell lines, SK-N-DZ, SK-N-BE(2)c, SK-N-AS, and LAN-5 obtained from the American Type Culture Collection (Rockville, MD), were cultured in DMEM with 10% fetal bovine serum (FBS), 100 units/ml penicillin, and 100 μg/ml streptomycin in the presence of 5% CO2 at 37° C. Human PBMCs from a healthy donor were purchased from Sanguine BioSciences (Valencia, CA) and grown in RPMI1640 with 10% FBS, 100 units/ml penicillin, 100 μg/ml streptomycin, and 10 ng/ml IL-2 in the presence of 5% CO2 at 37° C. Human embryonic progenitor cell line 7SM0032 was acquired from Millipore (Billerica, MA) and grown in the hEPM-1 Media Kit purchased from the same company. The plasmid pCBASce expresses the rare cutting I-SceI meganuclease. The U20S-derived cell lines, DR-GFP and EJ5-GFP, each contain a stably transfected reporter gene for DSB repair mediated by HR and end joining (EJ), respectively. These cell lines were cultured in DMEM medium with 10% FBS at 37° C. in the presence of 5% CO2.
(§2) To measure the effect of the compounds on cell growth, cells were seeded at 3×10^4/ml into a 96-well plate. Once attached, cells were treated with various concentrations of AOH1160 for 72 h. Cell growth was measured by the CellTitor-Glo assay (Promega, Madison, WI) according to the manufacturer's instructions. To measure apoptosis, cells were seeded at 1×10^5/ml onto a chamber slide. Once attached, cells were treated with the 500 nM AOH1160 for 24 h. Cells were fixed and analyzed by a TUNEL assay using the TMR red in situ cell death detection kit (Roche Diagnostics, Indianapolis, IN).

SK-N-AS = test: Cell growth, CellTitor-Glo assay, 72 h; assay type: cell-based; conditions: Homo sapiens
Experimental: as §1, §2

SK-N-DZ = test: Cell growth, CellTitor-Glo assay, 72 h; assay type: cell-based; conditions: Homo sapiens
Experimental: as §1, §2

NCI-H322M = test: NCI-60 panel test; assay type: cell-based; conditions: Homo sapiens, NCI-60 5-dose study
Experimental: (§3) FIG. 7. NCI-60 panel test. The effect of AOH1160 on growth of the NCI-60 panel, which consists of 60 cancer cell lines representing 9 major cancer types, was tested in a 5-dose study. Shown are the Log IC50 values determined for each cell line. […] This study was performed by the National Institute of Cancer.
(§4) As observed in FIG. 7, the effect of AOH1160 on growth of the NCI-60 panel, which consists of 60 cancer cell lines representing 9 major cancer types, was tested in a 5-dose study. Shown are the Log IC50 values determined for each cell line.

A549/ATCC = test: NCI-60 panel test; assay type: cell-based; conditions: Homo sapiens, NCI-60 5-dose study
Experimental: as §3, §4

MOLT-4 = test: NCI-60 panel test; assay type: cell-based; conditions: Homo sapiens; MOLT-4, NCI-60 5-dose study
Experimental: as §3, §4

SW-620 = test: NCI-60 panel test; assay type: cell-based; conditions: Homo sapiens; SW-620, NCI-60 5-dose study
Experimental: as §3, §4

786-0 = test: NCI-60 panel test; assay type: cell-based; conditions: Homo sapiens; 786-0, NCI-60 5-dose study
Experimental: as §3, §4

COLO 205 = test: NCI-60 panel test; assay type: cell-based; conditions: Homo sapiens
Experimental: as §3, §4

DU-145 = test: NCI-60 panel test; assay type: cell-based; conditions: Homo sapiens; DU-145, NCI-60 5-dose study
Experimental: as §3, §4

MDA-MB-468 = test: NCI-60 panel test; assay type: cell-based; conditions: Homo sapiens; MDA-MB-468, NCI-60 5-dose study
Experimental: as §3, §4

KM12 = test: NCI-60 panel test; assay type: cell-based; conditions: Homo sapiens; KM12, NCI-60 5-dose study
Experimental: as §3, §4

SK-MEL-2 = test: NCI-60 panel test; assay type: cell-based; conditions: Homo sapiens; SK-MEL-2, NCI-60 5-dose study
Experimental: as §3, §4

SNB-75 = test: NCI-60 panel test; assay type: cell-based; conditions: Homo sapiens; SNB-75, NCI-60 5-dose study
Experimental: as §3, §4

HOP-62 = test: NCI-60 panel test; assay type: cell-based; conditions: Homo sapiens; HOP-62, NCI-60 5-dose study
Experimental: as §3, §4

SR = test: NCI-60 panel test; assay type: cell-based; conditions: Homo sapiens, NCI-60 5-dose study
Experimental: as §3, §4

NCI-H23 = test: NCI-60 panel test; assay type: cell-based; conditions: Homo sapiens; NCI-H23, NCI-60 5-dose study
Experimental: as §3, §4

MDA-MB-231/ATCC = test: NCI-60 panel test; assay type: cell-based; conditions: Homo sapiens, NCI-60 5-dose study
Experimental: as §3, §4

LOX IMVI = test: NCI-60 panel test; assay type: cell-based; conditions: Homo sapiens, NCI-60 5-dose study
Experimental: as §3, §4

SF-295 = test: NCI-60 panel test; assay type: cell-based; conditions: Homo sapiens; SF-295, NCI-60 5-dose study
Experimental: as §3, §4

OVCAR-3 = test: NCI-60 panel test; assay type: cell-based; conditions: Homo sapiens; OVCAR-3, NCI-60 5-dose study
Experimental: as §3, §4

SN12C = test: NCI-60 panel test; assay type: cell-based; conditions: Homo sapiens, NCI-60 5-dose study
Experimental: as §3, §4

T-47D = test: NCI-60 panel test; assay type: cell-based; conditions: Homo sapiens, T47D, NCI-60 5-dose study
Experimental: as §3, §4

NCI-H522 = test: NCI-60 panel test; assay type: cell-based; conditions: Homo sapiens; NCI-H522, NCI-60 5-dose study
Experimental: as §3, §4

UACC-62 = test: NCI-60 panel test; assay type: cell-based; conditions: Homo sapiens; UACC-62, NCI-60 5-dose study
Experimental: as §3, §4

A498 = test: NCI-60 panel test; assay type: cell-based; conditions: Homo sapiens; A498, NCI-60 5-dose study
Experimental: as §3, §4

NCI-H460 = test: NCI-60 panel test; assay type: cell-based; conditions: Homo sapiens; NCI-H460, NCI-60 5-dose study
Experimental: as §3, §4

MCF7 = test: NCI-60 panel test; assay type: cell-based; conditions: Homo sapiens; MCF7, NCI-60 5-dose study
Experimental: as §3, §4

K-562 = test: NCI-60 panel test; assay type: cell-based; conditions: Homo sapiens, K562; K-562, NCI-60 5-dose study
Experimental: as §3, §4

PBMC = test: Cell growth, CellTitor-Glo assay, 72 h; assay type: cell-based, human; conditions: Homo sapiens; PBMC (non-malignant)
Experimental: as §1, §2

| SMILES | IC50 (SK-N-BE(2)c) [µM] | IC50 (SK-N-AS) [µM] | IC50 (SK-N-DZ) [µM] | GI50 (NCI-H322M) [µM] | GI50 (A549/ATCC) [µM] | GI50 (MOLT-4) [µM] | GI50 (SW-620) [µM] | GI50 (786-0) [µM] | GI50 (COLO 205) [µM] | GI50 (DU-145) [µM] | GI50 (MDA-MB-468) [µM] | GI50 (KM12) [µM] | GI50 (SK-MEL-2) [µM] | GI50 (HOP-62) [µM] | GI50 (SR) [µM] | GI50 (NCI-H23) [µM] | GI50 (MDA-MB-231/ATCC) [µM] | GI50 (LOX IMVI) [µM] | GI50 (SF-295) [µM] | GI50 (OVCAR-3) [µM] | also measured |
| --- | --- | --- | --- | --- | --- | --- | --- | --- | --- | --- | --- | --- | --- | --- | --- | --- | --- | --- | --- | --- | --- |
| O=C(CNC(=O)c1cccc2ccccc12)Nc1ccccc1Oc1ccccc1 [AOH1160] | 0.326 | 0.108 | 0.238 | 0.631 | 0.457 | 0.347 | 0.282 | 0.447 | 0.309 | 0.324 | 0.324 | 0.288 | 0.269 | 0.355 | 0.0832 | 0.661 | 0.977 | 0.309 | 0.251 | 0.191 | GI50 (SNB-75): 0.229 µM; GI50 (SN12C): 0.589 µM; GI50 (T-47D): 0.537 µM; GI50 (NCI-H522): 0.151 µM; GI50 (UACC-62): 0.178 µM; GI50 (A498): 0.257 µM; GI50 (NCI-H460): 0.331 µM; GI50 (MCF7): 0.309 µM; GI50 (K-562): 0.0708 µM; IC50 (PBMC): > 20 µM |
| O=C(CNC(=O)c1cccc2ccccc12)Nc1ccccc1Oc1ccc(O)cc1 [PCNA1] | 0.49 | 0.157 | 0.467 | 1.15 | 1.48 | 1.2 | 0.912 | 1.05 | 0.794 | 1.15 | 0.55 | 0.912 | 25.1 | 1.35 | 0.457 | 2.14 | 3.16 | 1.74 | 0.617 | 0.741 | GI50 (SNB-75): 0.589 µM; GI50 (SN12C): 2.19 µM; GI50 (T-47D): 1.55 µM; GI50 (NCI-H522): 0.851 µM; GI50 (UACC-62): 1.17 µM; GI50 (A498): 1.02 µM; GI50 (NCI-H460): 0.977 µM; GI50 (MCF7): 0.851 µM; GI50 (K-562): 0.501 µM; IC50 (PBMC): > 20 µM |
| O=C(CNC(=O)c1cccc2ccccc12)Nc1ccccc1Oc1cccc(O)c1 [PCNA2] | 0.485 | 0.192 | 0.539 | 10.7 | 9.55 | 4.9 | 3.09 | 10 | 14.8 | 9.55 | 3.55 | 2.19 | 25.1 | 8.13 | 1.05 | 15.8 | 17.8 | 15.1 | 2.19 | 1.51 | GI50 (SNB-75): 3.31 µM; GI50 (SN12C): 25.1 µM; GI50 (T-47D): 9.77 µM; GI50 (NCI-H522): 1.62 µM; GI50 (UACC-62): 1.62 µM; GI50 (A498): 5.13 µM; GI50 (NCI-H460): 5.75 µM; GI50 (MCF7): 4.47 µM; GI50 (K-562): 1.05 µM; IC50 (PBMC): > 20 µM |
| COc1ccc(Oc2ccccc2NC(=O)CNC(=O)c2cccc3ccccc23)cc1 [PCNA6] | 0.234 | 0.091 | 0.271 | 1.23 | 1.26 | 0.955 | 0.676 | 1.15 | 0.646 | 1.02 | 0.457 | 0.575 | 2.29 | 0.724 | 0.166 | 1.29 | 2.24 | 1.35 | 0.398 | 0.389 | GI50 (SN12C): 2.29 µM; GI50 (T-47D): 2.51 µM; GI50 (NCI-H522): 0.195 µM; GI50 (UACC-62): 0.562 µM; GI50 (A498): 0.562 µM; GI50 (NCI-H460): 0.851 µM; GI50 (MCF7): 0.257 µM; GI50 (K-562): 0.145 µM; IC50 (PBMC): > 20 µM |
| COc1cccc(Oc2ccccc2NC(=O)CNC(=O)c2cccc3ccccc23)c1 [PCNA7/ AOH1996] | 0.236 | 0.125 | 0.288 | 1.29 | 0.316 | 0.661 | 0.166 | 0.182 | 0.282 | 0.708 | 0.331 | 0.191 | 0.182 | 0.302 | 0.115 | 0.741 | 0.776 | 0.269 | 0.112 | 0.1 | GI50 (SNB-75): 0.129 µM; GI50 (SN12C): 1.45 µM; GI50 (T-47D): 0.138 µM; GI50 (NCI-H522): 0.178 µM; GI50 (UACC-62): 0.209 µM; GI50 (A498): 0.115 µM; GI50 (NCI-H460): 0.295 µM; GI50 (MCF7): 0.1 µM; GI50 (K-562): 0.129 µM; IC50 (PBMC): > 20 µM |
